The values that follow come from ChEMBL document CHEMBL1201862, “PubChem BioAssay data set” (2004).

Some test systems named below: A498; ACHN; HCT-15; HOP-62; HOP-92; Hs-578T; KM12; LOX IMVI; NCI/ADR-RES; OVCAR-3; OVCAR-4; OVCAR-5; RXF 393; SF-268; SF-295; SK-OV-3; SNB-19; TK-10; UACC-257.
Holding throughout (assay): DTP human tumour cell line panel, 48 h

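Dose response: 5 concentrations. Exposure: 48 h. Format: 96-well plates. Endpoint: linear interpolation; highest concentration if not reached. GI50 marks 50% less growth.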 Calls of active or inactive are those of the source. Cut-off read from the data, not from the text of the source: active = GI50 up to about 1.1 µM and inactive = higher.

What is called GI50 is the concentration that inhibits growth by half. For the compound `COc1ccc(C2=C(Cl)c3cc(OC)c(OC)cc3C2=O)cc1OC`, the GI50 is 18.1 µM (inactive) in the experiment on A498; 5.57 µM (inactive) with ACHN; 6.9 µM in the experiment on HCT-15; 15.3 µM (inactive) with HOP-62; 1.8 µM (inactive) in the experiment with HOP-92; 30 µM (inactive) in the experiment with Hs-578T. Also, the GI50 with KM12 was 17.4 µM (inactive); in the experiment with LOX IMVI it was 12 µM (inactive); in the experiment on NCI/ADR-RES, 21.9 µM (inactive); with OVCAR-3, 1.77 µM (inactive); with OVCAR-4, 12.1 µM (inactive); in the experiment with OVCAR-5, 19.8 µM (inactive). The GI50 in the experiment on RXF 393 was 5.7 µM (inactive); with SF-268, 18.9 µM (inactive); with SF-295 it was > 100 µM (inactive); in the experiment on SK-OV-3, 21 µM (inactive); in the experiment on SNB-19 it was > 100 µM (inactive); with TK-10, 13 µM (inactive). Also, the GI50 with UACC-257 is 4.28 µM (inactive).

As to `Oc1ccc(Cl)cc1-c1cc(-c2ccccc2)nc(S)n1`, the GI50 in the experiment on A498 was 41.6 µM (inactive); with ACHN, 30.3 µM (inactive); in the experiment with HCT-15, 94 µM; with HOP-62, 22.6 µM (inactive); in the experiment on HOP-92, 19.2 µM (inactive); in the experiment on Hs-578T, 29.2 µM (inactive). Moreover, the GI50 with KM12 is 92.5 µM (inactive); in the experiment on LOX IMVI it was > 100 µM (inactive); in the experiment with NCI/ADR-RES, 97.9 µM (inactive); in the experiment on OVCAR-3 it was > 100 µM (inactive); with OVCAR-4, > 100 µM (inactive); in the experiment with OVCAR-5 it was > 100 µM (inactive). The GI50 was 71.3 µM (inactive) with RXF 393; 27.3 µM (inactive) with SF-268; 28.6 µM (inactive) with SF-295; 29.5 µM (inactive) with SK-OV-3; 42.9 µM (inactive) in the experiment with SNB-19; 30.5 µM (inactive) in the experiment with TK-10. The GI50 in the experiment with UACC-257 was > 100 µM (inactive).

For the compound `Cc1cn(C2CC(n3cc(Cn4cc(Br)c(=O)[nH]c4=O)nn3)C(CO)O2)c(=O)[nH]c1=O` (centres undefined), the GI50 is > 100 µM (inactive) with A498; > 100 µM (inactive) in the experiment with ACHN; greater than 100 µM with HCT-15; > 100 µM (inactive) in the experiment on HOP-62; 20.4 µM (inactive) with HOP-92; > 100 µM (inactive) with Hs-578T. In addition, the GI50 with KM12 was 47.3 µM (inactive); in the experiment on LOX IMVI, > 100 µM (inactive); with NCI/ADR-RES, 68.2 µM (inactive); in the experiment on OVCAR-3, > 100 µM (inactive); in the experiment with OVCAR-4, > 100 µM (inactive); with OVCAR-5, > 100 µM (inactive). For the same compound, the GI50 is > 100 µM (inactive) in the experiment with RXF 393; > 100 µM (inactive) with SF-268; 41.9 µM (inactive) in the experiment with SF-295; 63.2 µM (inactive) in the experiment with SK-OV-3; 37.8 µM (inactive) with SNB-19; > 100 µM (inactive) with TK-10. Also, the GI50 in the experiment with UACC-257 is > 100 µM (inactive).

Turning to `NC1=Nc2ccccc2Sc2nccn21`, the GI50 was 28.2 µM (inactive) in the experiment with A498; 30 µM (inactive) with ACHN; 25.2 µM in the experiment on HCT-15; 24.4 µM (inactive) in the experiment on HOP-62; 15.1 µM (inactive) in the experiment on HOP-92; 25.3 µM (inactive) in the experiment on Hs-578T. Also, the GI50 is 24.2 µM (inactive) in the experiment with KM12; 17.8 µM (inactive) in the experiment with LOX IMVI; 30.5 µM (inactive) in the experiment with NCI/ADR-RES; 18.6 µM (inactive) with OVCAR-3; 30.6 µM (inactive) in the experiment with OVCAR-4; 48.8 µM (inactive) with OVCAR-5. Further, the GI50 in the experiment on RXF 393 was 25.8 µM (inactive); in the experiment on SF-268, 30.2 µM (inactive); with SF-295, 22.3 µM (inactive); with SK-OV-3, > 100 µM (inactive); with SNB-19, 40.3 µM (inactive); in the experiment with TK-10 it was 30.6 µM (inactive). For the same compound, the GI50 in the experiment with UACC-257 was 31.8 µM (inactive).

As for `NS(=O)(=O)c1ccc(NCc2cccc3c(=O)c4ccc(Cl)cc4oc23)cc1`, the GI50 with A498 was > 75.3 µM (inactive); in the experiment with ACHN, 28.4 µM (inactive); in the experiment with HCT-15, 11.5 µM; in the experiment on HOP-62, 39.7 µM (inactive); with HOP-92, 12.6 µM (inactive); with Hs-578T it was 20 µM (inactive). Besides, the GI50 was 21.4 µM (inactive) with KM12; 20.9 µM (inactive) with LOX IMVI; 32.5 µM (inactive) with NCI/ADR-RES; 54.8 µM (inactive) in the experiment with OVCAR-3; > 95.9 µM (inactive) with OVCAR-4; > 100 µM (inactive) with OVCAR-5. Also, the GI50 was 27.1 µM (inactive) with RXF 393; 19.5 µM (inactive) with SF-268; 59.4 µM (inactive) in the experiment on SF-295; > 71.8 µM (inactive) with SK-OV-3; 8.07 µM (inactive) in the experiment with SNB-19; > 72.9 µM (inactive) in the experiment with TK-10. In the experiment with UACC-257, the GI50 was 60.4 µM (inactive).

On to `CC1=CC2C(C(C)C)CC1C1C(=O)OC(=O)C21` (centres undefined), for which the GI50 in the experiment with A498 was > 100 µM (inactive); in the experiment on ACHN, > 100 µM (inactive); in the experiment with HCT-15 it was 58.2 µM; in the experiment with HOP-62 it was 99.3 µM (inactive); in the experiment on HOP-92, 65.5 µM (inactive); in the experiment with Hs-578T, 75.3 µM (inactive). Moreover, the GI50 in the experiment with LOX IMVI was > 100 µM (inactive); in the experiment on NCI/ADR-RES, 77.3 µM (inactive); in the experiment with OVCAR-3, 23.2 µM (inactive); in the experiment with OVCAR-4, 91 µM (inactive); in the experiment on OVCAR-5, > 100 µM (inactive); in the experiment on RXF 393, > 100 µM (inactive). For the same compound, the GI50 is > 100 µM (inactive) in the experiment on SF-268; > 100 µM (inactive) with SK-OV-3; > 100 µM (inactive) in the experiment with SNB-19; 45.8 µM (inactive) in the experiment with TK-10; > 100 µM (inactive) with UACC-257.

In the case of `O=c1[nH]c2cc(Cl)ccc2nc1/C(=N/Nc1ccccc1)C(O)c1ccco1` (centres undefined), the GI50 is > 100 µM (inactive) in the experiment on A498; > 100 µM (inactive) in the experiment with ACHN; greater than 100 µM in the experiment on HCT-15; > 100 µM (inactive) with HOP-62; > 100 µM (inactive) in the experiment on HOP-92; > 100 µM (inactive) with Hs-578T. For the same compound, the GI50 in the experiment on KM12, in the experiment on LOX IMVI, in the experiment on NCI/ADR-RES, in the experiment on OVCAR-3, with OVCAR-4 and in the experiment on OVCAR-5 was > 100 µM (inactive) in each case. For the same compound, the GI50 with RXF 393, in the experiment with SF-268, in the experiment with SF-295, with SK-OV-3, in the experiment on SNB-19 and with TK-10 was > 100 µM (inactive) throughout. For the same compound, the GI50 in the experiment with UACC-257 was > 100 µM (inactive).

Regarding `C=C1CC=CC(C)(C)C1C/C=C(\C)C(O)CBr` (centres undefined), the GI50 in the experiment with A498 was > 100 µM (inactive); in the experiment on ACHN, 53.7 µM (inactive); in the experiment on HCT-15, 51.1 µM; in the experiment with HOP-62 it was > 100 µM (inactive); with HOP-92 it was 30.9 µM (inactive); in the experiment on Hs-578T it was > 100 µM (inactive). The GI50 in the experiment on KM12 is 77.1 µM (inactive); in the experiment with LOX IMVI it was 19.1 µM (inactive); in the experiment with NCI/ADR-RES, 19.2 µM (inactive); in the experiment on OVCAR-4, 76 µM (inactive); in the experiment with OVCAR-5 it was > 100 µM (inactive); in the experiment with RXF 393, 26.7 µM (inactive). In addition, the GI50 in the experiment on SF-268 is > 100 µM (inactive); in the experiment with SF-295, > 100 µM (inactive); with SK-OV-3, > 100 µM (inactive); with SNB-19 it was > 100 µM (inactive); in the experiment with TK-10, 89.9 µM (inactive); with UACC-257, 54.7 µM (inactive).
